# Laboratory results reported in patent publication US20010025105A1, “Certain substituted 1-aryl-3-piperazine-1'-yl propanones” (Molecular Geriatarics Corporation, priority 1997, published 2001).
# Structures can show the parent of a compound that is named as a salt. Where two headings read alike, the source gives them in different places.
# Legend:
# [1] = test system: Staphylococcus aureus SRI 1323; assay: Agar disc diffusion assay; assay type: cell-based; details: 240 ug/disc, about 24 hr at 37° C.; for zone of inhibition at 240 µg/disc: Staphylococcus aureus, SRI1323, read-out: Diameter of the zone of inhibition, S. aureus
# Method: (§1) The activity of the compounds is determined using the following assay. The compound is dissolved in DMSO at a concentration of 6 mg/ml and then diluted with water to a final concentration of 3 mg/ml in 50% DMSO (% DMSO was shown not to be inhibitory to the test organisms). An aliquot (0.08 ml) of each drug solution was transferred to filter paper discs (12.7 mm diameter, Scmeicherand Schuell) for use in the agar diffusion assay. The concentration of each drug on the filter paper disc was 240 ug/disc. The test organisms included the following: Gram-positive aerobes (Staphylococcus aureus SRI 1323, Streptococcus pneumoniae SRI 1167); Gram-negative aerobe (Proteus vulgaris SRI 180); and the yeast Candida albicans SRI 523. An agar disc diffusion assay was used to evaluate the antimicrobial activity of the test compounds. Briefly, cultures were prepared from 16-20 hr agar slant cultures by inoculating in physiological saline to a turbidity equivalent to a #0.5 McFarland turbidity standard for the bacteria and a #3 McFarland standard for C. albicans. The surface of Mueller-Hinton agar (15×100 mm plates, mm) were evenly inoculated with each standardized culture using a cotton swab. Filter paper discs containing the drug concentration listed above were then placed on the inoculated agar plates along with a disc containing the solvent used to dissolve each drug. The plates were incubated at 37° C. for about 24 hr and the diameters of the zones of inhibition measured with a vernier caliper. Positive control drugs consisted of streptomycin for use with the bacterial strains and 5-fluorocytosine for use with C. albicans. The positive control drugs were assayed as described above for the compounds of the present invention using the same concentration.
# [2] = test system: Streptococcus pneumoniae SRI 1167; assay: Agar disc diffusion assay; assay type: cell-based; details: 240 ug/disc, about 24 hr at 37° C., + = zone too large to measure; for zone of inhibition at 240 µg/disc: Streptococcus pneumoniae, SRI1167, read-out: Diameter of the zone of inhibition, S. pneumoniae
# Method: as §1
# [3] = test system: Proteus vulgaris SRI 180; assay: Agar disc diffusion assay; assay type: cell-based; details: 240 ug/disc, about 24 hr at 37° C., 0 = no measurable zone; for zone of inhibition at 240 µg/disc: Proteus vulgaris, SRI180, read-out: Diameter of the zone of inhibition, P. vulgaris
# Method: as §1
# [4] = test system: Candida albicans SRI 523; assay: Agar disc diffusion assay; assay type: cell-based; details: 240 ug/disc, about 24 hr at 37° C.; for zone of inhibition at 240 µg/disc: Candida albicans, SRI523, read-out: Diameter of the zone of inhibition, C. albicans
# Method: as §1
# [5] = test system: microtubule cytoskeleton of human CG neuroblastoma cells; assay: Antimicrotubule activity, tubulin immunofluorescence microscopy; assay type: cell-based; details: 2 hr at 37° C., read-out: Concentration where microtubule destabilization occurs
# Method: The compounds of the invention according to formula I are effective in destabilizing microtubules, thus are useful in treating certain neoplastic diseases. Indirect immunofluorescence microscopy using the monoclonal antibodies to tubulin is used herein to determine the activity of the compounds of this invention in promoting depolymerization of the microtubule cytoskeleton in cultured cells. The following assay was employed.
# Cultured human CG neuroblastoma cells were seeded 1:3 from confluent cultures onto sterile 11×22 mm coverslips in 6 well tissue culture plates 16 hr prior to treatment. The following day, the tissue culture medium is removed and the cells are exposed to various concentrations of compounds of this invention in Krebs Ringer Hepes (KRH) buffer containing a final concentration of 0.5% DMSO as carrier. Incubations were performed at 37° C. in a humidified 5% CO2 atmosphere for 2 hr. After incubation, the cells were fixed in 3% TEM grade formaldehyde in PBS for 45 min at room temperature.
# To visualize the effects of the compounds of the invention on the microtubule cytoskeleton, the cells were processed for tubulin immunofluorescence. Briefly, the cells were permeabilized in 0.5% Triton-X 100 in PBS for 5 min. The cells were washed 2× with PBS and aldehydes reduced using 0.5 mg/ml NaBH4 in PBS for 5 min. Subsequently, the cells were blocked for 10 min in 1.5% BSA and 1.5% nonfat dry milk in PBS (blocking solution, BS) for 10 min. The cells were then incubated for 30 min at 37° C. with the monoclonal antibody Tu27B which recognizes b-tubulin (dilution 1:20 in BS). Subsequently, the cells were washed 2× in PBS and once in BS. The cells were then incubated for 30 min at 37° C. with sheep antimouse IgG conjugated to FITC. After incubation, the cells were washed 2× in PBS and once in BS and incubated for 30 min at 37° C. with rabbit antisheep IgG conjugated to FITC. The cells were rinsed in PBS, counterstained with Hoechst 33285 in PBS (1 μg/ml), and rinsed in PBS. The coverslips were mounted in 9:1 glycerol:PBS containing 1 mg/ml p-phenylenediamine and sealed with nail polish.
# The cells were viewed using a Jenalumar epifluorescence microscope equipped with the proper filters for Fluorescein Isothiocyanate (FITC) excitation and emission. Lack of effect of a compound is evidenced by the presence of an intact microtubule network in interphase cells, or a mitotic spindle in dividing cells. Antineoplastic compounds of the invention at effective doses result in the disappearance of microtubules in both interphase and mitotic cells.
# [6] = test system: TG3 immunoreactivity in OKA treated MSN1a cells; assay: MSN1a cell culture model, ELISA with TG3 antibody, okadaic acid treated cells; assay type: cell-based, human; details: 1 μM OKA, 2 hrs at 37° C., read-out: IC50 for inhibition of TG3 immunoreactivity in OKA treated MSN1a cells
# Method: This assay can thus be used to determine whether a drug is capable of preventing or intervening in AD by attenuating the production of abnormally phosphorylated paired helical filament epitopes associated with AD. To determine whether a drug is capable of preventing or intervening in AD activity, the MSN1a cells containing tau and associated proteins are treated with OKA capable of greatly increasing immunoreactivity of the MSN1a cells with AD specific monoclonal antibodies. Then, either prior to or concomitantly with OKA treatment, a compound of the present invention is added to the culture. If the compound prevents the induction of the AD epitopes in the MSN1a cells treated with OKA, then it is said to have anti-AD activity. If the AD-specific antibodies are highly reactive with the neuroblastoma cells following OKA treatment in the presence of compound, then the compound is said to be ineffectual against AD.
# The MSN1a human neuroblastoma line was subcloned from a population of MSN cells obtained from the laboratory of Dr. Peter Davies (Albert Einstein College of Medicine, New York, N.Y.). Cells were grown and maintained in flasks in RPMI 1640 medium, supplemented with 15% fetal calf serum, 100 U/ml penicillin, 100 U/ml Streptomycin, 0.5 ug/ml fungizone under 7.5% CO2 at 37° C.
# Stock solutions of drugs were prepared by dissolving the anhydrous powders to final concentrations of either 10 or 20 mM in 50% aqueous or 100% dimethyl sulfoxide (DMSO), respectively. Working solutions of drugs were prepared by dilution of the stock solutions with Kreb's Ringer in Hepes buffer (KRH) (128 mM NaCl, 5 mM KCl, 2.5 mM CaCl2 1.2 mM MgSO4, 1 mM Na2HPO4, 10 mM dextrose, 20 mM Hepes, pH 7.4). OKA is maintained as a 1 mM stock solution in DMSO prior to dilution to 4 μM in KRH.
# MSN cells grown in 225 cm^2 flasks are removed from the incubator, their medium decanted and replaced with 50 ml pre-warmed KRH. The cells are harvested by scraping prior to sedimentation at 1000 rpm for 5 min. The supernatants are discarded and the cell pellets are resuspended, the cells counted and diluted to a density of 2×10^4 cells/[…]. The cells are then plated in a 96 well plate at 50 μl/well and 25 μl of 4 μM OKA and 25 μl of drug are then added to the appropriate wells; the entire 96 well plate is then incubated for 2 hrs at 37° C. Depending on the dilution of drug added, this yields individual wells containing 1 μM OKA, 0-64 μM drug and 2×10^4 cells in 0.26% DMSO in KRH. The incubation is terminated by the addition of 20 μl of 6X extraction buffer and immediate freezing at −80° C. for at least one hr. The 6X extraction buffer contains: 25 mM Tris-HCl, pH 7.6, 150 mM NaCl, 5 mM EDTA, 24 mM β-glycerol phosphate, 10 μg/ml APMSF (4-amidinophenylmethane-sulfonyl flouride), and 2.5 μg/ml each of leupeptin, aprotinin, and pepstatin. The plates are thawed in a 37° C. water bath and 20 μl of cell lysate is added to a replica well in an ELISA plate that already contains 80 μl of coating buffer (15 mM Na2CO3 and 35 mM NaHCO3, pH 9.6). The plates are allowed to coat overnight at 4° C. The plates are washed four times with deionized water and then blocked for 30 min at 37° C. with 200 μl/well pre-warmed 1% bovine serum albumin in 10 mM Tris-HCl, pH 7.4, 150 mM NaCl, 3 mM NaN3 (BSA-TBS). After the blocking solution is removed, 100 μl/well of an appropriate dilution of pre-warmed primary antibody (eg., TG3 or PHF-1) in BSA-TBS is added and incubated at 37° C. for 30 min. Incubation is terninated by washing four times in deionized water at which time 100 μl of an appropriate dilution of pre-warmed secondary antibody (conjugated to alkaline phosphatase) in BSA-TBS is added to each well in the ELISA plate. Incubation is performed for 30 min at 37° C. followed by washing 4 times with deionized water. […] of prewarmed chromogenic substrate (1 mg/mnl p-nitrophenyl phosphate in 10% diethanolamine, 3 mM NaN3, 0.5 mM MgCl2, pH 9.8) is added and the plate incubated for 30 min at 37° C. […]
Structure (SMILES),"Diameter of the zone of inhibition, S. aureus [1]","Diameter of the zone of inhibition, S. pneumoniae [2]","Diameter of the zone of inhibition, P. vulgaris [3]","Diameter of the zone of inhibition, C. albicans [4]",zone of inhibition at 240 µg/disc [1],zone of inhibition at 240 µg/disc [2],zone of inhibition at 240 µg/disc [3],zone of inhibition at 240 µg/disc [4],also measured
"Cl.Cl.O=C(CCN1CCN(C(c2ccccc2)c2ccc(Cl)cc2)CC1)c1ccc(Br)s1 (stereo not drawn) [Example 78, 1(5″-Bromo-2″-thienyl)-3-[4′-(1′″-p-chlorophenyl-1′″-phenylmethyl)-1′-piperazinyl]-1-propanone dihydrochloride]",16.2 mm,19.7 mm,14.5 mm,15.2 mm,,,,,
Cl.Cl.O=C(CCN1CCN(Cc2ccccc2)CC1)c1ccc([N+](=O)[O-])cc1 [Example 5],22.8 mm,29.9 mm,17.3 mm,17.6 mm,,,,,minimal effective concentration [5]: 4 µM
"Cl.Cl.O=C(CCN1CCN(Cc2ccccc2)CC1)c1ccc(F)c(Br)c1 [Example 25, 1-(p-Fluoro-m-bromophenyl)-3-(4′-benzyl-1′-piperazinyl)-1-propanone dihydrochloride]",27.5 mm,36.3 mm,16.0 mm,26.0 mm,,,,,
"O=C(CCN1CCN(Cc2ccccc2)CC1)c1cc2ccccc2o1 [Example 10, 1-(Benzofur-2″-yl)-3-(4′-benzyl-1′-piperazinyl)-1-propanone dihydrochloride]",,,,,,,,,IC50 ([6]; Homo sapiens): 6 µM; minimal effective concentration ([5]; Neuroblastoma cell): 20 µM
"O=C(CCN1CCN(Cc2ccccc2)CC1)c1nccs1 [Example 76, 1-(2-Thiazolyl)-3-(4′-benzyl-1′-piperazinyl)-1-propanone dihydrochloride]",,,,,19.3 mm,35.5 mm,20.5 mm,20.9 mm,IC50 ([6]; Homo sapiens): 10.5 µM
"O=C(CCN1CCN(C(=O)c2sc3ccccc3c2Cl)CC1)c1ccc(Br)s1 [Example 86, 1-(5″-Bromo-2″-thienyl)-3-[4′-(3′″-chlorobenzo[b]-2′″-thienoyl)-1′-piperazinyl]-1-propanone dihydrochloride]",,,,,16.2 mm,19.3 mm,13.9 mm,17.3 mm,
"Cl.Cl.O=C(CCN1CCN(Cc2ccccc2)CC1)c1csc([N+](=O)[O-])c1 [Example 80, 1-(5″-Nitro-3″-thienyl)-3-(4′-benzyl-1′-piperazinyl)-1-propanone dihydrochloride]",17.2 mm,,13.8 mm,14.5 mm,,,,,IC50 [6]: 5.7 µM
"Nc1nc(=O)[nH]cc1F [5-fluorocytosine, reference compound]",,,,,,,,33.5 mm,
Cl.O=C(CCN1CCN(C(=O)c2ccccc2C(F)(F)F)CC1)c1ccccc1F [Example 43],17.7 mm,25.3 mm,15.9 mm,22.5 mm,,,,,
"[H]/N=C(/N)N[C@H]1[C@H](O)[C@@H](O)[C@H](O[C@@H]2O[C@@H](C)[C@](O)(C=O)[C@H]2O[C@@H]2O[C@@H](CO)[C@H](O)[C@@H](O)[C@@H]2NC)[C@@H](N/C(N)=N\[H])[C@@H]1O [streptomycin, reference compound]",,,,,28.4 mm,39.8 mm,37.6 mm,,
